Measurements reported in patent US11559575B2, “Multi-epitopic peptide compounds and vaccines against leishmaniasis” (INSTITUT DE RECHERCHE POUR LE DEVELOPPEMENT, priority 2018, dated 2023).
“Also recorded” adds a separate entry of the source.

Tests used:
HLA alleles of class I = assay: Affinity of epitopes for HLA alleles of class I; assay type: binding, human; settings: for Affinity for the HLA alleles of class I: H2B-1 epitopes, Table 1; for Concatenation affinity for HLA allele of class I: LmLRAB (IA, IB, IC) epitopes, Table 2
Source text: The multiepitopic peptide compounds (24 to 40-mer), having a high affinity with a maximized number of HLA molecules of class I and of class II, such as the affinities for the alleles HLA of class I and HLA of class II of the epitopes in the peptides of the sequences SEQ ID NO: 22, 23, 65, 66, 69, 73, 77, 96, 97, 137, 138, and 157, 185, have a high immunoprevalent potential corresponding to an optimal vaccine coverage, in particular for the populations concerned. The degree of coverage of the peptide compounds of the invention show a very high added value compared with the peptides of the prior art.

[1] = test system: HLA supertypes of class I; assay: Affinity of epitopes for HLA supertypes of class I; assay type: binding, human; settings: for Affinity for the HLA supertypes of class I: H2B-1 epitopes, Table 1; for Affinity for HLA supertypes of class I: LmLRAB (IA, IB, IC) epitopes, Table 2
Source text: HLA molecules are highly polymorphous. This is because there exist more than 2500 HLA proteins of class I (HLA-I) and more than 1000 HLA proteins of class II (HLA-II). However, some of these HLA molecules, close in sequence and in spatial conformation, may have epitopes common to the T cells. The grouping of several thousands of HLA molecules is at the present time described in a little more than 20 or so categories, referred to as “HLA supertypes” having epitopes that are very well preserved for each supertype.

[2] = test system: CD4+ T cells of a naive individual (MPL10); assay: IFN-γ ELISPOT with CD4+ T cells and autologous dendritic cells of a naive individual (long protocol, three stimulations); assay type: cell-based, human
Protocol: The immunogenicity was evaluated, with combinations of peptides (combination corresponding to the “Pool H”) at 1 μM for each peptide, from samplings of blood of naive individuals and according to a long protocol with at least three successive stimulations. An IFN-γ ELISPOT test for measuring the frequency of the pre-existing naive T cells and the amplitude of the specific naive T repertoire for each peptide, was performed with the CD4+ T cells and the autologous dendritic cells of a naive individual in the presence or absence of the mixture of peptides, or in the presence of each peptide individually. […] The “Pool H” combination was used either with peptides not modified at the amino-terminal end and with amidation of the carboxy-terminal end, or with peptides chemically modified by a palmitoyl tail at the amino-terminal end and with amidation of the carboxy-terminal end.
The evaluation of the immunogenicity properties of peptide compounds according to the invention in naive individuals, persons who have never been in contact with the Leishmania parasite, is an important factor in predicting the efficacy of a peptide vaccine (Kwok WW et al, 2012, Frequency of epitope-specific naive CD4(+) T cells correlates with immunodominance in the human memory repertoire; Castelli F A et al, 2007, Differential capacity of T cell priming in naive donors of promiscuous CD4+ T cell epitopes of HCV NS3 and Core proteins). Immunogenicity is evaluated in vitro by measuring the frequency of the pre-existing naive T cells and the amplitude of the naive T repertoire specific for each compound. The evaluation is carried out using blood samples from naive individuals and in accordance with a long protocol (Castelli F A, et al. 2007 as aforementioned) putting purified T lymphocytes in contact with autologous dendritic cells previously incubated with the peptides of the invention. The combination of peptides used is composed of: SEQ ID NO: 23, SEQ ID NO: 66, SEQ ID NO: 73, SEQ ID NO: 77, SEQ ID NO: 97, SEQ ID NO: 138, SEQ ID NO: 157, SEQ ID NO: 185, SEQ ID NO: B11, SEQ ID NO: B12 and SEQ ID NO: B13. The compounds were synthesized chemically without amino-terminal modification and with carboxy-terminal (peptide-NH2) amidation (NH2). After three successive stimulations at intervals of seven days of the CD4+ T cells of a naive individual (MPL10; Établissement français du sang de Toulouse), an IFN-γ ELISPOT was carried out with the cells in the presence or absence of the mixture of peptides, or in the presence of each compound individually. […] Each positive line responds to at least one of the peptides of the present invention. The MPL10-3 line responds to the peptides SEQ ID NO: 73 and SEQ ID NO: 157. The MPL10-4 line responds to the peptides SEQ ID NO: 23, SEQ ID NO: 73, SEQ ID NO: 77, SEQ ID NO: 97, SEQ ID NO: 138 and SEQ ID NO: 157. The MPL10-7 line responds to the peptides SEQ ID NO: 77, SEQ ID NO: 97 and SEQ ID NO: 157. The MPL10-8 line responds to the peptides SEQ ID NO: 66, SEQ ID NO: 73, SEQ ID NO: 97, SEQ ID NO: 138 and SEQ ID NO: 157. The MPL10-10 line responds to the peptides SEQ ID NO: 66, SEQ ID NO: 73, SEQ ID NO: 77, SEQ ID NO: 97, SEQ ID NO: 138, SEQ ID NO: 157 and SEQ ID NO: 185. And the MPL10-12 line responds to the peptides SEQ ID NO: 66, SEQ ID NO: 157 and SEQ ID NO: 185.
The evaluation of the immunogenicity properties of peptide compounds of the invention in the same naive individual (MPL10) but with chemically synthesized compounds with the addition of a palmitoylated tail at the amino-terminal end and with an NH2 group at the carboxy-terminal end (PAL-peptide-NH2) was also performed. The same combination of peptides as before was used. After three stimulations with the mixture of PAL-peptide-NH2 peptides, an IFN-g ELISPOT was carried out with the cells in the presence or absence of the mixture of peptides, or in the presence of each peptide individually. […]

[3] = MPL10-PAL-2 line, PAL-peptide-NH2
[4] = MPL10-PAL-3 line, PAL-peptide-NH2

Substance: AINAQMSMM (Leishmania major) [SEQ ID NO: 1]
- Affinity for the HLA alleles of class I (HLA alleles of class I): HLA-B*15:01
- Affinity for the HLA supertypes of class I [1]: HLA-B*62

Substance: ASFRSTEAI (Leishmania major) [SEQ ID NO: 75]
- Concatenation affinity for HLA allele of class I (HLA alleles of class I): HLA-A*32:01,; also recorded: HLA-B*15:03,; also recorded: HLA-B*1517
- Affinity for HLA supertypes of class I [1]: HLA-A*01,; also recorded: HLA-B*27,; also recorded: HLA-B*58

Substance: IKAINAQMSM (Leishmania major) [SEQ ID NO: 2]
- Affinity for the HLA alleles of class I (HLA alleles of class I): HLA-B*57:01; also recorded: HLA-B*15:01,
- Affinity for the HLA supertypes of class I [1]: HLA-B*62; also recorded: HLA-B*58,

Substance: KAARSARSGEGYFLTDEKTSLVYGDGG (listed as Leishmania infantum) [SEQ ID NO: 157]
- IFN-γ ELISPOT response of specific line to individual peptide ([2]; MPL10-3 line, peptide-NH2): responds
- IFN-γ ELISPOT response of specific line to individual peptide ([2]; MPL10-4 line, peptide-NH2): responds
- IFN-γ ELISPOT response of specific line to individual peptide ([2]; MPL10-7 line, peptide-NH2): responds
- IFN-γ ELISPOT response of specific line to individual peptide ([2]; MPL10-8 line, peptide-NH2): responds
- IFN-γ ELISPOT response of specific line to individual peptide ([2]; MPL10-10 line, peptide-NH2): responds
- IFN-γ ELISPOT response of specific line to individual peptide ([2]; MPL10-12 line, peptide-NH2): responds
- IFN-γ ELISPOT response of specific line to individual peptide [2, 3]: responds
- IFN-γ ELISPOT response of specific line to individual peptide [2, 4]: responds

Substance: KAINAQMSMM (Leishmania major) [SEQ ID NO: 4]
- Affinity for the HLA alleles of class I (HLA alleles of class I): HLA-B*58:01,; also recorded: HLA-B*57:01,; also recorded: HLA-B*15:01
- Affinity for the HLA supertypes of class I [1]: HLA-B*58,; also recorded: HLA-B*62

Substance: KARYMPHVDQSSIARYASFRSTEAIRYSSIMVVANK (Leishmania major) [SEQ ID NO: 77]
- IFN-γ ELISPOT response of specific line to individual peptide ([2]; MPL10-4 line, peptide-NH2): responds
- IFN-γ ELISPOT response of specific line to individual peptide ([2]; MPL10-7 line, peptide-NH2): responds
- IFN-γ ELISPOT response of specific line to individual peptide ([2]; MPL10-10 line, peptide-NH2): responds
- IFN-γ ELISPOT response of specific line to individual peptide [2, 4]: responds

Substance: KARYMSMSHRTMKSMSHRTMKIKAINAQMSMMERICTEAA (Leishmania major) [SEQ ID NO: 23]
- IFN-γ ELISPOT response of specific line to individual peptide ([2]; MPL10-4 line, peptide-NH2): responds
- IFN-γ ELISPOT response of specific line to individual peptide [2, 4]: responds

Substance: KARYRFAQGEHDIRLPENAFVIARYTQGSSKAGF (Leishmania major) [SEQ ID NO: 73]
- IFN-γ ELISPOT response of specific line to individual peptide ([2]; MPL10-3 line, peptide-NH2): responds
- IFN-γ ELISPOT response of specific line to individual peptide ([2]; MPL10-4 line, peptide-NH2): responds
- IFN-γ ELISPOT response of specific line to individual peptide ([2]; MPL10-8 line, peptide-NH2): responds
- IFN-γ ELISPOT response of specific line to individual peptide ([2]; MPL10-10 line, peptide-NH2): responds
- IFN-γ ELISPOT response of specific line to individual peptide [2, 3]: responds
- IFN-γ ELISPOT response of specific line to individual peptide [2, 4]: responds

Substance: KEMPSGSDYSHMSIRDLDFSNMGLLLSGT (KEMPSGSDYSHSMIRDLDFSNMGLLLSGT; listed as Leishmania infantum) [SEQ ID NO: 185]
- IFN-γ ELISPOT response of specific line to individual peptide ([2]; MPL10-10 line, peptide-NH2): responds
- IFN-γ ELISPOT response of specific line to individual peptide ([2]; MPL10-12 line, peptide-NH2): responds
- IFN-γ ELISPOT response of specific line to individual peptide [2, 3]: responds
- IFN-γ ELISPOT response of specific line to individual peptide [2, 4]: responds

Substance: KGRLHSVVGRHLSIVADHMPHLDQ (Leishmania major) [SEQ ID NO: 97]
- IFN-γ ELISPOT response of specific line to individual peptide ([2]; MPL10-4 line, peptide-NH2): responds
- IFN-γ ELISPOT response of specific line to individual peptide ([2]; MPL10-7 line, peptide-NH2): responds
- IFN-γ ELISPOT response of specific line to individual peptide ([2]; MPL10-8 line, peptide-NH2): responds
- IFN-γ ELISPOT response of specific line to individual peptide ([2]; MPL10-10 line, peptide-NH2): responds
- IFN-γ ELISPOT response of specific line to individual peptide [2, 4]: responds

Substance: KGRSENAIVTSRKVQEEVFDLFTDVHYSEVSAKTK (Leishmania major) [SEQ ID NO: 138]
- IFN-γ ELISPOT response of specific line to individual peptide ([2]; MPL10-4 line, peptide-NH2): responds
- IFN-γ ELISPOT response of specific line to individual peptide ([2]; MPL10-8 line, peptide-NH2): responds
- IFN-γ ELISPOT response of specific line to individual peptide ([2]; MPL10-10 line, peptide-NH2): responds
- IFN-γ ELISPOT response of specific line to individual peptide [2, 4]: responds

Substance: KTKQHLREM (Leishmania major) [SEQ ID NO: 68]
- Concatenation affinity for HLA allele of class I (HLA alleles of class I): HLA-A*30:01,; also recorded: HLA-A*2602
- Affinity for HLA supertypes of class I [1]: HLA-A*01/HLA-A*03,

Substance: MERICTEAA (Leishmania major) [SEQ ID NO: 6]
- Affinity for the HLA alleles of class I (HLA alleles of class I): HLA-B*40:02,; also recorded: HLA-B*45
- Affinity for the HLA supertypes of class I [1]: HLA-B*44

Substance: MMERICTEA (Leishmania major) [SEQ ID NO: 5]
- Affinity for the HLA alleles of class I (HLA alleles of class I): HLA-A*02:03,; also recorded: HLA-A*02:01
- Affinity for the HLA supertypes of class I [1]: HLA-A*02

Substance: MMERICTEAA (Leishmania major) [SEQ ID NO: 7]
- Affinity for the HLA alleles of class I (HLA alleles of class I): HLA-A*02:03
- Affinity for the HLA supertypes of class I [1]: HLA-A*02

Substance: MPHVDQSSI (Leishmania major) [SEQ ID NO: 74]
- Concatenation affinity for HLA allele of class I (HLA alleles of class I): HLA-B*07:02,; also recorded: HLA-B*35:01,; also recorded: HLA-B*51:01,; also recorded: HLA-B*53:01,; also recorded: HLA-B*08:01
- Affinity for HLA supertypes of class I [1]: HLA-B*07,; also recorded: HLA-B*08

Substance: MSHRTMKIK (Leishmania major) [SEQ ID NO: 8]
- Affinity for the HLA alleles of class I (HLA alleles of class I): HLA-A*30:01,; also recorded: HLA-A*03:01,; also recorded: HLA-A*11:01
- Affinity for the HLA supertypes of class I [1]: HLA-A*01/HLA-A*03,

Substance: MSMSHRTMKSMSHRTMKIKAINAQMSMMERICTEAA (Leishmania major) [SEQ ID NO: 22]
- IFN-γ ELISPOT response of specific line to individual peptide [2, 3]: responds

Substance: SEQ ID NO: 66: multiepitopic peptide compound of overlapping H2B epitopes of sequences SEQ ID NO: 24 to 64; sequence not printed (KGRKPKRSWNVYVGRSLKAINAQMSMSHRTMKIV; Leishmania major)
- IFN-γ ELISPOT response of specific line to individual peptide ([2]; MPL10-8 line, peptide-NH2): responds
- IFN-γ ELISPOT response of specific line to individual peptide ([2]; MPL10-10 line, peptide-NH2): responds
- IFN-γ ELISPOT response of specific line to individual peptide ([2]; MPL10-12 line, peptide-NH2): responds
- IFN-γ ELISPOT response of specific line to individual peptide [2, 3]: responds
- IFN-γ ELISPOT response of specific line to individual peptide [2, 4]: responds
